Measured values: publication PMC12624727, “Benzodeazaoxaflavin Sirtuin Inhibitors Inhibit Schistosoma mansoni Sirt2 and Cause Phenotypic Changes and Lethality in Schistosomula and Adult Worm Stages” (ACS Infectious Diseases, 2025)
Like-named read-outs stand apart in the source and are kept apart here.

Legend:
[1] = system: S. mansoni (Puerto Rican) worm pairs; assay: Worm pairing of adult worm pairs (Puerto Rican strain); type: cell-based, Schistosoma mansoni; settings: % of DMSO control
hSirt2 = settings: cited from earlier work
[2] = system: S. mansoni (Puerto Rican) worm pairs; assay: Egg laying by adult worm pairs (Puerto Rican strain); type: cell-based, Schistosoma mansoni; settings: % of DMSO control
[3] = system: S. mansoni newly transformed schistosomula (NTS), Liberian strain; assay: NTS (Liberian strain) in vitro viability assay; type: cell-based, Schistosoma mansoni; settings: for percentage of reduction of NTS viability, 72 h: SD in brackets; for IC50: 72 h, Liberian strain
SmSirt2 = SmSirt2 (Schistosoma mansoni, UniProt T1VXA1); assay: In vitro SmSirt2 inhibition assay, homogeneous fluorescence-based, ZMAL substrate; type: biochemical; settings: for IC50: read-out: IC50 SmSirt2, ZMAL substrate
Description: We first improved the synthetic method to obtain most of the BDFs analogues 1–12 (Figure ), and we tested them against recombinant SmSirt2 using a homogeneous, fluorescent-based in vitro assay with (Z)-(Ac)-Lys-7-amino-4-methylcoumarin (ZMAL) as the substrate.
The BDF4 compounds 1–12 were tested for their inhibitory activity against SmSirt2 using a fluorescence-based assay with ZMAL as the substrate. Their activity against hSirt2 has been previously reported. ,
For the screening of compounds 1–12, a homogeneous fluorescence-based assay previously described by some of us was used to determine SmSirt2 activity.

[4] = system: adult S. mansoni (Liberian strain) worm pairs; assay: Adult worm (Liberian strain) in vitro viability assay; type: cell-based, Schistosoma mansoni; settings: for adult worms' percentage of viability reduction, 72 h: SD in brackets; for IC50: Schistosoma mansoni, 72 h, Liberian strain
[5] = system: adult S. mansoni (Puerto Rican strain) worm pairs; settings: for reduction of viability of adult worm pairs: concentration not given, Puerto Rican strain; for viability of adult worm pairs after recovery: both, Puerto Rican, Schistosoma mansoni
[6] = system: cytochrome c release in S. mansoni (Puerto Rican strain) worms; assay: Western blot of cytosolic cytochrome c in worm extracts; type: cell-based, Schistosoma mansoni; settings: 1 μM, 24 h (legend of Figure 5)
Description: To determine if the Sirt2 inhibitors trigger apoptosis through the cytochrome c pathway, we examined cytochrome c release from mitochondria.
5 Effects of selected Sirt2 inhibitors on cytosolic cytochrome c expression. Representative immunoblots of cytosolic protein fractions extracted from S. mansoni adult worm pairs are shown. The worms were treated with the indicated Sirt2 inhibitors (10 μM) for 48 h. DMSO (vehicle), TSA (1 μM, 24 h), a HDAC pan-inhibitor, and salermide (Sal 25 μM, 48 h), a Sirt1/Sirt2 inhibitor, were used as controls. The α-tubulin signal was used for normalization. Quantitation of cytochrome c relative to the vehicle-treated sample is shown.
Ten pairs of adult parasites were treated with selected Sirt inhibitors for either 24 or 48 h at partially lethal and sublethal concentrations. The concentrations of compounds were chosen based on the viability curve. Positive controls in the experiments included TSA, a pan-HDAC inhibitor, and salermide, a hSirt1/2 inhibitor, while DMSO (vehicle) served as negative control. Parasites were lysed in a 0.5% Triton PBS buffer by strokes, and the lysates were then centrifuged to collect the soluble fractions (cytosol). The insoluble fractions were extracted with 0.25 N HCl at +4 °C for 18 h, followed by neutralization with 1/10 volume of 2 N NaOH. Samples were analyzed using 15% SDS-PAGE and Western blotting. […]

[7] = ref footnote b (reference number not given)

Sequence of SmSirt2 (T1VXA1 entry or part of it): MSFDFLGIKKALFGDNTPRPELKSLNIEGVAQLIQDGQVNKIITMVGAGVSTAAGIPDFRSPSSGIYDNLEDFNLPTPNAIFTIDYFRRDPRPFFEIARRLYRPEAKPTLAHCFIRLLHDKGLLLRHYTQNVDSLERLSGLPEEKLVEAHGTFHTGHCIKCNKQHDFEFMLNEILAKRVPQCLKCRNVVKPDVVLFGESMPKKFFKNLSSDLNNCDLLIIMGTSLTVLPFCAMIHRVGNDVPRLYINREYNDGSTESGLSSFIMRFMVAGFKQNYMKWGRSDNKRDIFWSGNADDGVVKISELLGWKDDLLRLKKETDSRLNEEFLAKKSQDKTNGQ

| Structure (SMILES) | % worm pairing ([1]; 1 μM, 24 h, single experiment) | % worm pairing ([1]; 1 μM, 48 h, single experiment) | % worm pairing ([1]; 1 μM, 72 h, single experiment) | % worm pairing ([1]; 10 μM, 24 h, SD in brackets) | % worm pairing ([1]; 10 μM, 48 h, SD in brackets) | % worm pairing ([1]; 10 μM, 72 h, SD in brackets) | % worm pairing ([1]; 20 μM, 24 h, SD in brackets) | % worm pairing ([1]; 20 μM, 48 h, SD in brackets) | % worm pairing ([1]; 20 μM, 72 h, SD in brackets) | % egg laying ([2]; 1 μM, 24 h, single experiment) | % egg laying ([2]; 1 μM, 48 h, single experiment) | percentage of reduction of NTS viability, 72 h ([3]; 0.1 μM) | percentage of reduction of NTS viability, 72 h ([3]; 1 μM) | percentage of reduction of NTS viability, 72 h ([3]; 10 μM) | percentage of reduction of NTS viability, 72 h ([3]; 20 μM) | IC50 ([3]; Schistosoma mansoni) | IC50 (SmSirt2) | adult worms' percentage of viability reduction, 72 h ([4]; 20 μM) | IC50 [4] | IC50 (hSirt2; [7]) | also measured |
| --- | --- | --- | --- | --- | --- | --- | --- | --- | --- | --- | --- | --- | --- | --- | --- | --- | --- | --- | --- | --- | --- |
| O=c1nc2oc3ccc4ccccc4c3cc-2c(=O)[nH]1 [Compound 1, 7-Oxa-8,10-Diazabenzo[a]anthracene-9,11-dione] | 100% | 100% | 100% | 100 (0) % | 100 (0) % | 100 (0) % | 100 (0) % | 100 (0) % | 100 (0) % | 79% | 90% | 16.7 (0) % | 90 (1.7) % | 100 (0) % | 100 (0) % | ~200 nM | 3.8 ± 0.3 µM | 85.7 (7.2) % | > 10 µM | – | IC50 (hSirt2; ref footnote a (reference number not given)): > 50 µM; % egg laying ([2]; 1 μM, 72 h, single experiment): 116%; % egg laying ([2]; 10 μM, 24 h, SD in brackets): 93 (27) %; % egg laying ([2]; 10 μM, 48 h, SD in brackets): 97 (14) %; % egg laying ([2]; 10 μM, 72 h, SD in brackets): 122 (14) %; % egg laying ([2]; 20 μM, 24 h, SD in brackets): 56 (22) %; % egg laying ([2]; 20 μM, 48 h, SD in brackets): 75 (19) %; % egg laying ([2]; 20 μM, 72 h, SD in brackets): 109 (47) %; IC50 [3]: 250 nM; selectivity toward SmSIRT2 over the human isoform (SmSirt2; SmSirt2 vs hSirt2): selectively active against the parasite enzyme; adult worms' percentage of viability reduction, 72 h ([4]; 10 μM): 27.5 (2) %; reduction of viability of adult worm pairs ([5]; 72 h): 20% |
| Cn1c(=O)nc2oc3ccc4ccccc4c3cc-2c1=O [Compound 2, 10-Methyl-9H-benzo[5,6]chromeno[2,3-d]pyrimidine-9,11(10H)-dione] | – | – | – | – | – | – | – | – | – | – | – | 20.8 (0) % | 43.8 (2.1) % | 61.5 (3.8) % | 85.7 (3.6) % | 1500 nM | 2.3 ± 0.1 µM | 82.1 (3.6) % | > 10 µM | 11.2 ± 0.3 µM | adult worms' percentage of viability reduction, 72 h ([4]; 10 μM): 37.3 (3.9) % |
| CCn1c(=O)nc2oc3ccc4ccccc4c3cc-2c1=O [Compound 3, 10-Ethyl-9H-benzo[5,6]chromeno[2,3-d]pyrimidine-9,11(10H)-dione] | – | – | – | – | – | – | – | – | – | – | – | – | 40 (0) % | 100 (0) % | 100 (0) % | 1030 nM | 12.6 ± 2.2 µM | 80.3 (5.4) % | > 10 µM | 30 ± 1.2 µM | adult worms' percentage of viability reduction, 72 h ([4]; 10 μM): 49 (0) % |
| C=CCn1c(=O)nc2oc3ccc4ccccc4c3cc-2c1=O [Compound 4, 10-Allyl-9H-benzo[5,6]chromeno[2,3-d]pyrimidine-9,11(10H)-dione] | 100% | 100% | 100% | 90 (14) % | 90 (14) % | 90 (14) % | 0 (0) % | 20 (0) % | 60 (0) % | 72% | 68% | 20 (0) % | 100 (0) % | 100 (0) % | 100 (0) % | ~100 nM | – | 94.4 (0) % | 2.03 µM | 10.8 ± 0.3 µM | % egg laying ([2]; 1 μM, 72 h, single experiment): 95%; % egg laying ([2]; 10 μM, 24 h, SD in brackets): 61(6) %; % egg laying ([2]; 10 μM, 48 h, SD in brackets): 82 (12) %; % egg laying ([2]; 10 μM, 72 h, SD in brackets): 79 (19) %; % egg laying ([2]; 20 μM, 24 h, SD in brackets): 11 (6) %; % egg laying ([2]; 20 μM, 48 h, SD in brackets): 7 (5) %; IC50 [3]: 120 nM; inhibition at 50 µM (SmSirt2): 53.9%; adult worms' percentage of viability reduction, 72 h ([4]; 1 μM): 40.7 (3.7) %; reduction of viability of adult worm pairs ([5]; 24 h): approximately 80%; viability of adult worm pairs after recovery ([5]; 72 h): 50% |
| CCCn1c(=O)nc2oc3ccc4ccccc4c3cc-2c1=O [Compound 5, 10-Propyl-9H-benzo[5,6]chromeno[2,3-d]pyrimidine-9,11(10H)-dione] | 100% | 100% | 100% | 90 (14) % | 100 (14) % | 100 (14) % | 0 (0) % | 10 (14) % | 0 (0) % | 104% | 94% | 24 (0) % | 100 (0) % | 100 (0) % | 100 (0) % | ~100 nM | 8 ± 0.7 µM | 91.7 (2.8) % | 3.35 µM | 12.5 ± 0.5 µM | % egg laying ([2]; 1 μM, 72 h, single experiment): 144%; % egg laying ([2]; 10 μM, 24 h, SD in brackets): 55 (15) %; % egg laying ([2]; 10 μM, 48 h, SD in brackets): 73 (33) %; % egg laying ([2]; 10 μM, 72 h, SD in brackets): 75 (7) %; % egg laying ([2]; 20 μM, 24 h, SD in brackets): 12 (16) %; % egg laying ([2]; 20 μM, 48 h, SD in brackets): 11 (14) %; % egg laying ([2]; 20 μM, 72 h, SD in brackets): 13 (10) %; IC50 [3]: 120 nM; adult worms' percentage of viability reduction, 72 h ([4]; 1 μM): 25.9 (3.7) %; reduction of viability of adult worm pairs ([5]; 24 h): approximately 80%; viability of adult worm pairs after recovery ([5]; 72 h): 40% |
| CCCCn1c(=O)nc2oc3ccc4ccccc4c3cc-2c1=O [Compound 6, 10-Butyl-9H-benzo[5,6]chromeno[2,3-d]pyrimidine-9,11(10H)-dione] | – | – | – | – | – | – | – | – | – | – | – | – | – | – | 34 (1) % | – | 7.8 ± 0.8 µM | – | – | 16.9 ± 0.8 µM | – |
| O=C1NC(=O)N(c2ccccc2)C(=O)/C1=C/c1c(O)ccc2ccccc12 [Compound 10] | – | – | – | – | – | – | – | – | – | – | – | – | – | – | – | – | – | – | – | – | % inhibition at 50 μM hSirt2 (hSirt2; 50 μM, ref footnote a (reference number not given)): 0.7% ^a; inhibition of hSirt2 in words (hSirt2; ref not printed (previously reported)): failed to inhibit; inhibition at 50 µM (SmSirt2): 3.5%; inhibition of SmSirt2 in words (SmSirt2): failed to inhibit |
| CC(/C=C/C(=O)NO)=C\[C@@H](C)C(=O)c1ccc(N(C)C)cc1 [TSA] | – | – | – | – | – | – | – | – | – | – | – | – | – | – | – | – | – | – | – | – | cytosolic cytochrome c level [6]: increased levels of cytochrome c |
